From patent US20230117470A1, “SUBSTITUTED PYRAZOLE COMPOUNDS AS TOLL RECEPTOR INHIBITORS” (BRISTOL-MYERS SQUIBB COMPANY, priority 2019, published 2023)

Tests used:
Type in all cases: cell-based
human TLR7 = target: T1, human TLR7 (Homo sapiens, UniProt Q9NYK1); assay: TLR7 inhibition reporter assay (HEK-Blue cells, SEAP reporter, gardiquimod stimulation); conditions: HEK-Blue cells overexpressing human TLR7, SEAP reporter, gardiquimod 7.5 μM
T1 construct: host or cells: HEK-Blue cells
T1 sequence (Q9NYK1 27-1049): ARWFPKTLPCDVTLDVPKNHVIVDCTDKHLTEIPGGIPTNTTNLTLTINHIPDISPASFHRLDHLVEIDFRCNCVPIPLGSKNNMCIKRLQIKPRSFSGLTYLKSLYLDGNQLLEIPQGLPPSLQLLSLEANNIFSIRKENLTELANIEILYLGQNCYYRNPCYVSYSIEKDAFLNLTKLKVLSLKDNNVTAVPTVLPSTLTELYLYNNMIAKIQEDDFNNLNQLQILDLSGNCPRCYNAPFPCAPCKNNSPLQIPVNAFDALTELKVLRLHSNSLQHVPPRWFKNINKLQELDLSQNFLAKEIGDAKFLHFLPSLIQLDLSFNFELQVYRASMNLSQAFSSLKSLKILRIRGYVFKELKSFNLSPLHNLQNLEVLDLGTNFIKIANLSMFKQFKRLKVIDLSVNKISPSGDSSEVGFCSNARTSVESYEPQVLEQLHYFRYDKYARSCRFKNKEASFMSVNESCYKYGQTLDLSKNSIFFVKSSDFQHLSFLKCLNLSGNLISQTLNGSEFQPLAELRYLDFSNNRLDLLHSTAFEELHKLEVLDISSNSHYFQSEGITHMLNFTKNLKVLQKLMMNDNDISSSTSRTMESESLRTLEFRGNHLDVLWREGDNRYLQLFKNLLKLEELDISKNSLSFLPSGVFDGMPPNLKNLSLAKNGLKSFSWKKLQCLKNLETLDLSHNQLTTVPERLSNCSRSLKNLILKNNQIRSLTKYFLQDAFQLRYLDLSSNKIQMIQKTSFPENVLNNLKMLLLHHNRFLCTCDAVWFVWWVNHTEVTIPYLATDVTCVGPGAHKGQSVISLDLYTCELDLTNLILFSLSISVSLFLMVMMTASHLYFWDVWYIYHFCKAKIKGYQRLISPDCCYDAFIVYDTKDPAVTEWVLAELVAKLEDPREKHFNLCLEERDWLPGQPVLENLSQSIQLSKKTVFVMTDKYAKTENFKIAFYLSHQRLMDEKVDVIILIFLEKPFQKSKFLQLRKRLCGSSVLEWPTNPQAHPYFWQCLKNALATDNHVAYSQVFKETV
Procedure, shortened: (§1)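 Ligand levels differed by receptor: TLR7 got gardiquimod at 7.5 μM, TLR8 got R848 at 15.9 μM, and TLR9 got ODN2006 at 5 nM, each added after a 30-min room-temperature compound exposure. Incubation lasted 22 h at 37° C before colorimetric SEAP detection.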

human TLR9 = target: T2, human TLR9 (Homo sapiens, UniProt Q9NR96); assay: TLR9 inhibition reporter assay (HEK-Blue cells, SEAP reporter, ODN2006 stimulation); conditions: HEK-Blue cells overexpressing human TLR9, SEAP reporter, ODN2006 5 nM
T2 construct: host or cells: HEK-Blue cells
T2 sequence (Q9NR96 26-1032): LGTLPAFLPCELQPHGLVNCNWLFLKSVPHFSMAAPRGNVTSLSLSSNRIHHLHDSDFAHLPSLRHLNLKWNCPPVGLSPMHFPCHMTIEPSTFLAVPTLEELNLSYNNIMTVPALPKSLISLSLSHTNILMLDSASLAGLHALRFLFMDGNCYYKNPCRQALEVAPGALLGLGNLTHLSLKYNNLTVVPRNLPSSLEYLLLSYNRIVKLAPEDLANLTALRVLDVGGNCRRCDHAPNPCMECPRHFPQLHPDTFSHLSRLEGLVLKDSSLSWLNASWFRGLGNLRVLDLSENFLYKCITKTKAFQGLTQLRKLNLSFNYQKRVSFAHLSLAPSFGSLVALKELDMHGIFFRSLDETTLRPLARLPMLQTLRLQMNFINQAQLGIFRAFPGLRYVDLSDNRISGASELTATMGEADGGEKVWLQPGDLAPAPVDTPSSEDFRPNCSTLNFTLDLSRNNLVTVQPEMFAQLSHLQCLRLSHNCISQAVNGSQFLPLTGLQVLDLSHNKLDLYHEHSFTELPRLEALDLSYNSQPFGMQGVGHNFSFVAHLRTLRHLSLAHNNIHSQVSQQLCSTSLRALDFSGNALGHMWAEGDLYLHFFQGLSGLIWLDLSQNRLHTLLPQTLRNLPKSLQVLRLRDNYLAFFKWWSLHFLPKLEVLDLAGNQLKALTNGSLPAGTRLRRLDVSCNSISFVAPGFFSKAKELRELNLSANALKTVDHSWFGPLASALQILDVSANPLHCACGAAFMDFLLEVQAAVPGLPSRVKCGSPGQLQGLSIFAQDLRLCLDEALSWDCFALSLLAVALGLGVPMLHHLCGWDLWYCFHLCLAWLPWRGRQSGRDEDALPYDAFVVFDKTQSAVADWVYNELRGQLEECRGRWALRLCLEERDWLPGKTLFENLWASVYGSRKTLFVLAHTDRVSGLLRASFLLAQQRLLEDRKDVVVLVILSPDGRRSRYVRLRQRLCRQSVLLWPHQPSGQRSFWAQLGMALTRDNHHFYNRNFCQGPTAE
Procedure, shortened: as §1

human TLR8 = target: T3, human TLR8 (Homo sapiens, UniProt Q9NR97); assay: TLR8 inhibition reporter assay (HEK-Blue cells, SEAP reporter, R848 stimulation); conditions: HEK-Blue cells overexpressing human TLR8, SEAP reporter, R848 15.9 μM
T3 construct: host or cells: HEK-Blue cells
T3 sequence (Q9NR97 27-1041): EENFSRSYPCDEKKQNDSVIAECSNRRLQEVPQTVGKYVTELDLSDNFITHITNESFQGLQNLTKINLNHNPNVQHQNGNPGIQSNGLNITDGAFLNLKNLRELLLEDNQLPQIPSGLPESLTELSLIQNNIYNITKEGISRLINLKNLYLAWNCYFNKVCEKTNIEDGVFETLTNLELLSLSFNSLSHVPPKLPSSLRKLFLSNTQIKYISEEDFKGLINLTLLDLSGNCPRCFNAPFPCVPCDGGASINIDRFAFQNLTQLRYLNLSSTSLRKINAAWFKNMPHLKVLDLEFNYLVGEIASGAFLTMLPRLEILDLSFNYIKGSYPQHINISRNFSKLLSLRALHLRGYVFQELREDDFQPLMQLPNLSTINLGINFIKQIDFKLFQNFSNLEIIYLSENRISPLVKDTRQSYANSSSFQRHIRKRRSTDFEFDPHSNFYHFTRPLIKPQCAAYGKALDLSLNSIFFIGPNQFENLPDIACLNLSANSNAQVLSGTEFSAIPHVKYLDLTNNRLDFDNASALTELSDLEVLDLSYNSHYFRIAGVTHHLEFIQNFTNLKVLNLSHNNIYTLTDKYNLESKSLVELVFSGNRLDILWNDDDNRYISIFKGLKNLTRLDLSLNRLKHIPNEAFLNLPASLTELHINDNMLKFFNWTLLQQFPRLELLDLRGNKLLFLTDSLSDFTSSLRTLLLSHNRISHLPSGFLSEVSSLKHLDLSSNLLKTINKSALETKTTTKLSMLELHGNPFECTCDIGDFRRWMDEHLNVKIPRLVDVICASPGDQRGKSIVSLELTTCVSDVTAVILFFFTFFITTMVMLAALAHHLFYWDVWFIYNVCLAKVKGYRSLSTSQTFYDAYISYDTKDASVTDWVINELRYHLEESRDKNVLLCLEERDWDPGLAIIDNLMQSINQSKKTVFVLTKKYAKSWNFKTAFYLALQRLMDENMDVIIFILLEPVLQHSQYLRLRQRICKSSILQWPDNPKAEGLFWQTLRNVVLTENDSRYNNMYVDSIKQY
Procedure, shortened: as §1

IC50 (human TLR7)	IC50 (human TLR9)	IC50 (human TLR8)	SMILES
26.8 nM	22000 nM	22.9 nM	Cc1cc(-c2[nH]nc(-c3ccc4c(c3)CCN(CC(C)(C)O)C4)c2C(C)C)cn2ncnc12 [Example 264]
2.25 nM	14300 nM	90.9 nM	Cc1cc(-c2[nH]nc(C(=O)N[C@H]3CC[C@H](NCC(C)(C)C)CC3)c2C(C)C)cn2ncnc12 [Example 106]
3.6 nM	15400 nM	190 nM	Cc1cc(-c2[nH]nc(C(=O)N[C@H]3CC[C@H](N(CCC(C)(C)C)CCC(C)(C)C)CC3)c2C(C)C)cn2ncnc12 [Example 107]
29.4 nM	> 50000 nM	12.2 nM	COc1cc(-c2[nH]nc(-c3cnc(C4CCN(CC5CC5)CC4)cn3)c2C(C)C)cn2ncnc12 [Example 378]
0.81 nM	4450 nM	1.84 nM	Cc1cc(-c2[nH]nc(C(=O)N[C@H]3CC[C@@H](NCCCC(F)(F)F)CC3)c2C(C)C)cn2ncnc12 [Example 88]
5.04 nM	3330 nM	2.03 nM	Cc1cc(-c2[nH]nc(C(=O)N3CCC(N(C)C)CC3)c2C(C)C)cn2ncnc12 [Example 13]
0.18 nM	15800 nM	0.09 nM	COc1cc(-c2[nH]nc(-c3ccc(C4CCNCC4)cc3)c2C(C)C)cn2ncnc12 [compound 308]
13.6 nM	4830 nM	3.19 nM	Cc1cc(-c2[nH]nc(-c3ccc(C4CN(C(=O)CN(C)C)C4)cc3)c2C(C)C)cn2ncnc12 [Example 334, 2-(dimethylamino)-1-(3-(4-(4-isopropyl-5-(8-methyl-[1,2,4]triazolo[1,5-a]pyridin-6-yl)-1H-pyrazol-3-yl)phenyl)azetidin-1-yl)ethan-1-one]
4.92 nM	43500 nM	1.5 nM	Cc1cc(-c2[nH]nc(-c3cnc4c(c3)CNCC4)c2C(C)C)cn2ncnc12 [Example 230]
2.3 nM	> 50000 nM	0.59 nM	Cc1cc(-c2[nH]nc(-c3ccc(N)cc3)c2C(C)C)cn2ncnc12 [Example 233]
3.72 nM	6230 nM	2.82 nM	Cc1cc(-c2[nH]nc(-c3ccc(NC(C)C)nc3)c2C(C)C)cn2ncnc12 [Example 240]
1.84 nM	45400 nM	19.5 nM	Cc1cc(-c2[nH]nc(C(=O)NCC3CCNCC3)c2C(C)C)cn2ncnc12 [Example 45]
29.8 nM	> 50000 nM	5.33 nM	CCN(C)C1CCC(c2n[nH]c(-c3cc(C)c4ncnn4c3)c2C(C)C)CC1 (single isomer, unassigned) [Example 282]
34.9 nM	37400 nM	2.19 nM	COc1cc(-c2[nH]nc(-c3ccc(C4CN(C5CCOCC5)C4)cc3)c2C(C)C)cn2ncnc12 [Example 333]
118 nM	> 50000 nM	9.33 nM	Cc1cc(-c2[nH]nc(-c3ccc(C4CCN(C(C)C)CC4)cc3)c2C(C)C)cn2ncnc12 [Example 307, 6-(4-isopropyl-3-(4-(1-isopropylpiperidin-4-yl)phenyl)-1H-pyrazol-5-yl)-8-methyl-[1,2,4]triazolo[1,5-a]pyridine]
11.7 nM	43200 nM	23.8 nM	Cc1cc(-c2[nH]nc(C(=O)N[C@H]3CC[C@@H](NCc4cccnc4)CC3)c2C(C)C)cn2ncnc12 [Example 95]
35.1 nM	> 50000 nM	297 nM	COc1cc(-c2[nH]nc(-c3ccc(C4CCN(C(=O)CN(C)C)CC4)cn3)c2C(C)C)cn2ncnc12 [Example 402, 2-(dimethylamino)-1-(4-(6-(4-isopropyl-5-(8-methoxy-[1,2,4]triazolo[1,5-a]pyridin-6-yl)-1H-pyrazol-3-yl)pyridin-3-yl)piperidin-1-yl)ethan-1-one]
3.08 nM	> 50000 nM	33.3 nM	Cc1cc(-c2[nH]nc(-c3nc4c(s3)CCNC4)c2C(C)C)cn2ncnc12 [Example 221]
0.71 nM	1910 nM	3.44 nM	Cc1cc(-c2[nH]nc(C(=O)NC3CCN(CC(C)(C)C)CC3)c2C(C)C)cn2ncnc12 [Example 74]
7.72 nM	28600 nM	31.5 nM	Cc1cc(-c2[nH]nc(C(=O)NC3CCC(NC4(C)COC4)CC3)c2C(C)C)cn2ncnc12 (stereo not drawn) [Example 124]
7.97 nM	8990 nM	0.42 nM	CNC1CCC(c2n[nH]c(-c3cc(C)c4ncnn4c3)c2C(C)C)CC1 (single isomer, unassigned) [Example 294]
4.24 nM	23100 nM	1.34 nM	Cc1cc(-c2[nH]nc(C(=O)N3CCNCC3)c2C(C)C)cn2ncnc12 [Example 57]
0.59 nM	2870 nM	1.64 nM	Cc1noc(C)c1CN1CCC(NC(=O)c2n[nH]c(-c3cc(C)c4ncnn4c3)c2C(C)C)CC1 [Example 78]
